Experimental data as given in article PMC3914206.

How the values were obtained:
Format in all cases: binding
panel of 442 kinases [1] = biological target: T1, panel of 442 kinases (Homo sapiens, UniProt P30291); settings: kinase WEE1; compound concentration 10 µM
T1 construct: purchased KINOMEscan
From the text: (§1) We assessed the selectivity of members of this scaffold using the KINOMEscan methodology across a near comprehensive panel of 442 kinases [[18,27]].

panel of 442 kinases [2] = biological target: T2, panel of 442 kinases (Homo sapiens, UniProt P49840); settings: Compound Concentration 10 µM
T2 construct: purchased KINOMEscan
From the text: as §1

panel of 442 kinases [3] = biological target: T3, panel of 442 kinases (Homo sapiens, UniProt Q02156); settings: Compound Concentration 10 µM
T3 construct: purchased KINOMEscan
T3 sequence (Q02156 1-737): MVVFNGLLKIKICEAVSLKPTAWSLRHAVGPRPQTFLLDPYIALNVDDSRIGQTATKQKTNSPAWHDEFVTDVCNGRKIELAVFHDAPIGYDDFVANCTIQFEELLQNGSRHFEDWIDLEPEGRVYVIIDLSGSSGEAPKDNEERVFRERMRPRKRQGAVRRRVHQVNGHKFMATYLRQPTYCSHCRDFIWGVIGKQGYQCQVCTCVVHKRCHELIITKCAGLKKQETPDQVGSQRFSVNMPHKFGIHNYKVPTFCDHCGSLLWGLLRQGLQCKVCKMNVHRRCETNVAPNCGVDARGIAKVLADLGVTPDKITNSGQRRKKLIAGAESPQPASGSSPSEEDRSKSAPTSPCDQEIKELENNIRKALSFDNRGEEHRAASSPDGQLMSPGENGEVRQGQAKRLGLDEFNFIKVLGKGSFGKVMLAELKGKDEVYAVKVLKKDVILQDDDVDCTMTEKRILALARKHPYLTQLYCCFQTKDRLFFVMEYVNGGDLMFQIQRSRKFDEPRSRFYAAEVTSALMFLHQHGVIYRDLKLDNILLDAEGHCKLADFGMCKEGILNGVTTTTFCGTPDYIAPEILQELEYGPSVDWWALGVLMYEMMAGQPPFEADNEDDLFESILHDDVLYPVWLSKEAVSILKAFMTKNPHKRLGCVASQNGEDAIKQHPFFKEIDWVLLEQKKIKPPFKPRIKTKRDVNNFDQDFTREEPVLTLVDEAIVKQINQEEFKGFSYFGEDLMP
From the text: as §1

T2 sequence (P49840 whole entry): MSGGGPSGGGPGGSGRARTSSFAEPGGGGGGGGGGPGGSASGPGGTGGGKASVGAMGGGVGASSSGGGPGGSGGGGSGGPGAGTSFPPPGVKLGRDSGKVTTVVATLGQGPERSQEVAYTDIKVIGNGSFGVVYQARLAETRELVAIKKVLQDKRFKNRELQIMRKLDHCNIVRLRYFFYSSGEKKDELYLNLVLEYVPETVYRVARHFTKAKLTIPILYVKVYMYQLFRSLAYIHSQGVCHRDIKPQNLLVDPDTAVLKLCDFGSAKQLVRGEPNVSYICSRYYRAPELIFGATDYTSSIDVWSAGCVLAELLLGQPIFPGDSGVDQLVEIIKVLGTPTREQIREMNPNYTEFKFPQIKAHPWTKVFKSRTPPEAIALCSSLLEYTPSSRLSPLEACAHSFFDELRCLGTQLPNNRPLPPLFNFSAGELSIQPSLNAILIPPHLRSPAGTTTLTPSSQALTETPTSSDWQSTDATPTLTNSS
T1 sequence (P30291 whole entry): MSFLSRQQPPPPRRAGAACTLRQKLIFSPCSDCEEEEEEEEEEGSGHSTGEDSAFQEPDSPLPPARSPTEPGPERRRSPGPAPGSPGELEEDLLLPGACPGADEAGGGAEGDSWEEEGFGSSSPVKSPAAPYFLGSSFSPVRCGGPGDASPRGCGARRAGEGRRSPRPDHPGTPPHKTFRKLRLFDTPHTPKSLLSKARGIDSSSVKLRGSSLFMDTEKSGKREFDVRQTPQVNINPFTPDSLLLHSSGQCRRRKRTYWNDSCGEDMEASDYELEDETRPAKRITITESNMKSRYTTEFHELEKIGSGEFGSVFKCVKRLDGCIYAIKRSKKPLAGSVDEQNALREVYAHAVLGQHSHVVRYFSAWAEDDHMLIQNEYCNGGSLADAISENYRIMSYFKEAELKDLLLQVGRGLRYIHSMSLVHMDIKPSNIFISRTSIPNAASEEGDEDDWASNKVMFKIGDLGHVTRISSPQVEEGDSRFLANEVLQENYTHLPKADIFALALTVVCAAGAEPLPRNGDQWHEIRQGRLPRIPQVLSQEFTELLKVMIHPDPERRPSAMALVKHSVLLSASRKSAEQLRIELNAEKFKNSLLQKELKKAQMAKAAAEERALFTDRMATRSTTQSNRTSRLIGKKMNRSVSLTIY

Row | SMILES | % Ctrl, WEE1 (panel of 442 kinases [1]) [% Ctrl] | KINOMEscan: GSK3A (panel of 442 kinases [2]) | KINOMEscan: PRKCE (panel of 442 kinases [3])
1 | CCOc1cc(C(=O)N2CCC(N3CCN(C)CC3)CC2)ccc1Nc1ncc2c(n1)N(C1CCCC1)c1ccccc1C(=O)N2C [Compound 26] | 100 | 100 | 98
2 | COc1cc(C(=O)N2CCC(N3CCN(C)CC3)CC2)ccc1Nc1ncc2c(n1)N1CCc3cccc(c31)C(=O)N2C [Compound 24] | 82 |  | 72
3 | COc1cc(C(=O)N2CCC(N3CCN(C)CC3)CC2)ccc1Nc1ncc2c(n1)N(C)c1ccccc1C(=O)N2C [15 (LRRK2-IN-1)] | 100 | 100 | 100
4 | COc1cc(C(=O)N2CCC(N3CCN(C)CC3)CC2)ccc1Nc1ncc2c(n1)N(C1CCCC1)c1ccccc1C(=O)N2C [Compound 25, 11-cyclopentyl-2-((2-methoxy-4-(4-(4-methylpiperazin-1-yl)piperidine-1-carbonyl)phenyl)amino)-5-methyl-5H-benzo[e]pyrimido[5,4-b][1,4]diazepin-6(11H)-one] | 98 | 100 | 79
